# According to patent EP0007294A2, “Membrane stabilizing compounds having beta-receptor blocking activity, their preparation, method for treatment of arrhythmic conditions, and pharmaceutical preparations containing same” (priority 1978, dated 1980):
# Read-outs that look alike come from different tables or passages of the source.
# What was measured:
# [1] = Conscious dogs with ligation of a coronary artery according to Harris: ectopics and convulsions; type: in vivo; conditions: in vivo
# Excerpt: (§1) Male beagle dogs, 7-13 kg, undergo two days prior to the test a surgical ligation of a coronary artery. On the day of the test the conscious dog is secured in a canvas sling in a standing position and given increasing doses of the test compounds by intravenous administration. ECG, blood pressure etc are monitored and attention is paid to all CNS-effects. The dogs have almost 100 percent of ectopics prior to administration of the compound to be tested. Effects of the test drug on the frequency of ectopics are calculated from ECG. The accumulative end doses giving 50% and 90% reduction of ectopics as well as the ED50 values which give convulsions (side-effect) are measured and given below in Table 3. The value for convulsions is a mean value for 3-5 dogs.
# (§2) x) The value given is the final value in a series of doses 0.5 + 1 + 2 + 4 + 8 mg/kg i.v. giving 50% reduction of ectopics. 30 min interval between doses.
# (§3) Table 3: Antiarrythmic effect and CNS-effects of four β-receptor blockers, a membrane stabilizer, and ten new compounds with combined β-blocking and membrane stabilizing effect.
# ectopics = assay: as above; type: in vivo; conditions: for ED50 / ED90: Canis lupus familiaris; for ED50: read-out: Conscious dog Harris ligation Ectopics -50%; for ED90: read-out: Conscious dog Harris ligation Ectopics -90%
# Excerpt: as §1, §2, §3
# [2] = test system: ouabain-induced arrhythmias; assay: Ouabain-induced arrhythmias in anesthetized guinea-pigs; type: in vivo; conditions: for A-A EFFECT IN NUMBER OF ANIMALS: animals with antiarrhythmic effect / animals tested; for LOWEST FREQUENCY: frequency of ventricular premature beats after test solution; for ASYSTOLE: time of asystole under continued ouabain; for V-FIB: time of ventricular fibrillation under continued ouabain
# Experimental: Guinea-pigs of either.sex (300-400 g) were anesthetized with urethane 1,4 g/kg i.p. and tracheotomized. ECG, lead II was picked up with needle electrodes and was registered continuously throughout the experiment. Two i.v. catheters were inserted: one for the administration of ouabain, the other for the test solution.
# The experimental design for the study of antiarrhythmic activities is schematically shown in the head of Table 2. The arrhythmia was induced by automatic infusion of ouabain, 18 µg/kg/60" every two minutes for twelve minutes and thereafter 9 µg/kg/30" every two minutes throughout the whole experiment and the infusion was not stopped until asystole occurred. As soon as the frequency of ventricular premature beats (VPB) had passed 50 per cent, the test solution was given i.v. (0,2 ml/min) during 2 min. (see head of Table 2).
# [3] = Alternative chloroform test on mice: ventricular tachycardia inhibition and ataxia; type: in vivo; conditions: mouse, in vivo
# Experimental: (§4) In an alternative chloroform test on mice the ventricular tachycardia inhibition by the test compounds are observed. Thereby the test solution is given subcutaneous and the animal is observed for CNS-effects for 20 min. The mouse is put into a chamber with chloroform until it stops breathing (approx 30 sec.). The animal is then secured on a cork-board and ECG is monitored. If the ventricular rythm is less than 520 beats per min., the animal was protected against ventricular tachycardia. Groups of 10 animals were tested for each dose-level'and the ED50-values have been calculated therefrom. During the test the side-effect ataxia (incordination of movements) is observed.
# (§5) In Table 5, as shown, the new compounds tested exerted antiarrhythmic effects also in this te-st.
# [4] = test system: chloroform induced ventricular tachy-cardia; assay: as above; type: in vivo; conditions: for ED50: Mus musculus
# Experimental: as §4, §5
# [5] = test system: chloroform-induced ventricular arrhythmias; assay: Chloroform-induced ventricular arrhythmias (fibrillation) in mice, intraperitoneal dose; conditions: for Number of Animals Dead / Number of Animals Protected: dose 100 mg/kg intraperitoneal, 10 treated; for Number of Animals Protected: protected against CHCl3-induced ventricular fibrillation; for Number of Animals Convulsive / Number of Animals LRR: mouse, in vivo, ip, 100 mg/kg
# Excerpt: Mice were given an intraperitoneal dose of the test compound. Twenty minutes after dose, they were suffocated in chloroform vapor.- When the animals stopped breathing, the chest was opened to inspect for fibrillation. If the heart was not fibrillating, it was prodded.
# Signs of CNS toxicity were noted during the 20-minute interval between dosing and challenge.
# "Protected" means number of animals protected against CHC13- induced ventricular fibrillation.
# [6] = iv., conscious dog, mean value for 3-5 dogs, read-out: ED50 Convulsive
# [7] = iv., accumulative end dose giving 50% reduction of ectopics
# [8] = iv., accumulative end dose giving 90% reduction of ectopics
# [9] = sc., mice, observed for 20 min, read-out: Ataxia ED50
# [10] = sc., mice, chloroform, groups of 10 animals per dose-level
compound,measurement,setting,value
CC(C)NC[C@@H](O)COc1cccc2ccccc12 [D-Propranolol],TD50,[1]; [6],8 mg/kg
same,ED50,ectopics; [7],1 mg/kg
same,ED90,ectopics; [8],4 mg/kg
same,A-A EFFECT IN NUMBER OF ANIMALS,[2]; dose 0.3 mg/kg i.v.,6/8
same,A-A EFFECT IN NUMBER OF ANIMALS,[2]; dose 1.0 mg/kg i.v.,6/6
same,LOWEST FREQUENCY,[2]; dose 0.3 mg/kg i.v.,36±5%
same,LOWEST FREQUENCY,[2]; dose 1.0 mg/kg i.v.,5±3%
same,ASYSTOLE,[2]; dose 0.3 mg/kg i.v.,22 ± 1 min
same,ASYSTOLE,[2]; dose 1.0 mg/kg i.v.,29 ± 1 min
same,V-FIB,[2]; dose 0.3 mg/kg i.v.,14 ± 1 min
same,V-FIB,[2]; dose 1.0 mg/kg i.v.,23 ± 2 min
same,TD50 at 20 min,[3]; [9],~30 mg/kg
same,ED50,[4]; [10],~8 mg/kg
COCCc1ccc(OCC(O)CNCCc2ccccc2)c(Br)c1 (centres unmarked) [EX 3],A-A EFFECT IN NUMBER OF ANIMALS,[2]; dose 0.3 mg/kg i.v.,5/6
same,A-A EFFECT IN NUMBER OF ANIMALS,[2]; dose 1.0 mg/kg i.v.,6/6
same,LOWEST FREQUENCY,[2]; dose 0.3 mg/kg i.v.,26±7%
same,LOWEST FREQUENCY,[2]; dose 1.0 mg/kg i.v.,13±7%
same,ASYSTOLE,[2]; dose 0.3 mg/kg i.v.,34 ± 1 min
same,ASYSTOLE,[2]; dose 1.0 mg/kg i.v.,41 ± 2 min
same,V-FIB,[2]; dose 0.3 mg/kg i.v.,27 ± 1 min
same,V-FIB,[2]; dose 1.0 mg/kg i.v.,35 ± 2 min
"COCCc1ccc(OCC(O)CNC(C)Cc2ccc(O)cc2)c(Br)c1 (centres unmarked) [EX 4, 3-[1-methyl-2-i4-hydroxyphenyl)-ethylaminol-1-[4-(2-methoxyethyl)-2-bromophenoxy]-propanol-2]",A-A EFFECT IN NUMBER OF ANIMALS,[2]; dose 0.3 mg/kg i.v.,3/6
same,A-A EFFECT IN NUMBER OF ANIMALS,[2]; dose 1.0 mg/kg i.v.,6/6
same,LOWEST FREQUENCY,[2]; dose 0.3 mg/kg i.v.,31±14%
same,LOWEST FREQUENCY,[2]; dose 1.0 mg/kg i.v.,6±3%
same,ASYSTOLE,[2]; dose 0.3 mg/kg i.v.,27 ± 1 min
same,ASYSTOLE,[2]; dose 1.0 mg/kg i.v.,41 ± 3 min
same,V-FIB,[2]; dose 0.3 mg/kg i.v.,19 ± 1 min
same,V-FIB,[2]; dose 1.0 mg/kg i.v.,31±3 (N=4) min
COCCc1ccc(OCC(O)CNCCc2ccccc2)cc1 (centres unmarked) [Ex. 1],Number of Animals Dead,[5],0
same,Number of Animals Protected,[5],9
same,Number of Animals Convulsive,[5],1
same,Number of Animals LRR,[5],0
same,A-A EFFECT IN NUMBER OF ANIMALS,[2]; dose 0.3 mg/kg i.v.,4/8
same,A-A EFFECT IN NUMBER OF ANIMALS,[2]; dose 1.0 mg/kg i.v.,9/9
same,LOWEST FREQUENCY,[2]; dose 0.3 mg/kg i.v.,38±13%
same,LOWEST FREQUENCY,[2]; dose 1.0 mg/kg i.v.,9±4%
same,ASYSTOLE,[2]; dose 0.3 mg/kg i.v.,28 ± 1 min
same,ASYSTOLE,[2]; dose 1.0 mg/kg i.v.,38 ± 4 min
same,V-FIB,[2]; dose 0.3 mg/kg i.v.,19 ± 1 min
same,V-FIB,[2]; dose 1.0 mg/kg i.v.,31 ± 4 min
"COCc1ccc(OCC(O)CNCc2ccccc2)cc1 (centres unmarked) [Ex. 6, 3-phenylmethylamino-1-[4-methoxymgthylphenoxy]-propanol-2]",TD50,"[1]; dog, iv",14 mg/kg
same,ED50,ectopics; [7],8 mg/kg
same,ED90,ectopics; [8],> 16 mg/kg
same,TD50 at 20 min,[3]; sc,~70 mg/kg
same,ED50,[4]; [10],~200 mg/kg
COCc1ccc(OCC(O)CNCCc2ccccc2)cc1 (centres unmarked) [Ex. 7],TD50,"[1]; dog, iv",> 8 mg/kg
same,ED50,ectopics; [7],4 mg/kg
same,ED90,ectopics; [8],8 mg/kg
same,TD50 at 20 min,[3]; sc,~100 mg/kg
same,ED50,[4]; [10],~50 mg/kg
"COCc1ccc(OCC(O)CNCCCCc2ccccc2)cc1 (centres unmarked) [Ex. 8, 3-[4-phenylbutylamino)-1-(4-methoxymethylphenoxy)-propanol-2]",TD50,"[1]; dog, iv",8 mg/kg
same,ED50,ectopics; [7],4 mg/kg
same,ED90,ectopics; [8],> 8 mg/kg
"COCCc1ccc(OCC(O)CNCc2ccccc2)cc1 (centres unmarked) [Ex. 9, 3-phenylmethylamino-1-[4-(2-methoxyethyl)phenoxy]-propanol-2]",TD50,"[1]; dog, iv",8 mg/kg
same,ED50,ectopics; [7],2 mg/kg
same,ED90,ectopics; [8],4 mg/kg
same,TD50 at 20 min,[3]; sc,60 mg/kg
same,ED50,[4]; [10],35 mg/kg
"COCCc1ccc(OCC(O)CNCCCc2ccccc2)cc1 (centres unmarked) [Ex. 10, 3-(3-phenylpropylamino)-1-[4-(2-methoxyethyl)phenoxy]-propanol-2]",TD50,"[1]; dog, iv",> 8 mg/kg
same,ED50,ectopics; [7],2 mg/kg
same,ED90,ectopics; [8],4 mg/kg
same,TD50 at 20 min,[3]; sc,> 50 mg/kg
same,ED50,[4]; [10],3 mg/kg
"COCCc1ccc(OCC(O)CNCCCCc2ccccc2)cc1 (centres unmarked) [Ex. 11, 3-(4-phenylbutylamino)-1-[4-(2-methoxyethyl)phenoxy]-propanol--2]",TD50,[1]; [6],8 mg/kg
same,ED50,ectopics; [7],1 mg/kg
same,ED90,ectopics; [8],2 mg/kg
same,TD50 at 20 min,[3]; [9],> 50 mg/kg
same,ED50,[4]; [10],15 mg/kg
"COCCc1ccc(OCC(O)CNCCOc2ccccc2)cc1 (centres unmarked) [Ex. 13, 3-[2-phenoxyethylamino]-1-[4-(2-methoxyethyl)phenoxy]-propanol--2]",TD50,[1]; [6],8 mg/kg
same,ED50,ectopics; [7],4 mg/kg
same,ED90,ectopics; [8],4 mg/kg
same,TD50 at 20 min,[3]; [9],> 12 mg/kg
same,ED50,[4]; [10],3 mg/kg
"COCCc1ccc(OCC(O)CNCCc2ccccc2)cc1 (centres unmarked) [Ex. 14, 3-(2-phenethylamino)-1-[4-(2-methoxyethyl)phenoxy]-propanol-2]",ED50 Convulsive,"ectopics; dog, in vivo, iv",6 to 8 mg/kg
same,Conscious dog Harris ligation Ectopics -50%,ectopics; [7],1 mg/kg
same,Conscious dog Harris ligation Ectopics -90%,ectopics; [8],2 mg/kg
same,Ataxia ED50,"[4]; mouse, in vivo, sc, 20 min",40 mg/kg
same,Ventricular tachy-cardia inhibition ED50,[4]; [10],10 mg/kg
COCCc1ccc(OCC(O)CNCCCCc2ccc(OC)c(OC)c2)cc1 (centres unmarked) [Ex. 15],TD50,"[1]; dog, iv",6 mg/kg
same,ED50,ectopics; [7],1 mg/kg
same,ED90,ectopics; [8],4 mg/kg
same,TD50 at 20 min,[3]; sc,> 6.3 mg/kg
same,ED50,[4]; [10],1.2 mg/kg
CCN(CC)CC(=O)Nc1c(C)cccc1C [Lidocaine],Number of Animals Dead,[5],0
same,Number of Animals Protected,[5],5
same,Number of Animals Convulsive,[5],10
same,Number of Animals LRR,[5],10
same,A-A EFFECT IN NUMBER OF ANIMALS,[2]; dose 4.0 mg/kg i.v.,5/5
same,A-A EFFECT IN NUMBER OF ANIMALS,[2]; dose 12.0 mg/kg i.v.,5/6
same,LOWEST FREQUENCY,[2]; dose 4.0 mg/kg i.v.,10±1%
same,LOWEST FREQUENCY,[2]; dose 12.0 mg/kg i.v.,5±3%
same,ASYSTOLE,[2]; dose 4.0 mg/kg i.v.,21 ± 1 min
same,ASYSTOLE,[2]; dose 12.0 mg/kg i.v.,30 ± 3 min
same,V-FIB,[2]; dose 4.0 mg/kg i.v.,15 ± 2 min
same,V-FIB,[2]; dose 12.0 mg/kg i.v.,22 ± 3 min
COC(=O)NCCc1ccc(OCC(O)CNC(C)C)cc1 (centres unmarked) [Pamatolol],Number of Animals Dead,[5],0
same,Number of Animals Protected,[5],5
same,Number of Animals Convulsive,[5],0
same,Number of Animals LRR,[5],0
"CC(=O)Nc1ccc(OCC(O)CNC(C)C)cc1 (centres unmarked) [Practolol, reference compound]",TD50,[1]; [6],> 16 mg/kg
same,ED50,ectopics; [7],> 16 mg/kg
same,ED90,ectopics; [8],> 16 mg/kg
same,TD50 at 20 min,[3]; [9],> 50 mg/kg
same,ED50,[4]; [10],2 mg/kg
"Cc1cccc(C)c1NC(=O)C(C)N (centres unmarked) [Tocainide, reference compound]",TD50,"[1]; dog, iv",> 8 mg/kg
same,ED50,ectopics; [7],4 mg/kg
same,ED90,ectopics; [8],8 mg/kg
same,TD50 at 20 min,[3]; sc,130 mg/kg
same,ED50,[4]; [10],90 mg/kg
